{
  "source": "patent US11639506B2",
  "about": "“Recombinant yeast having increased tolerance to ionic liquids and methods of use” (Wisconsin Alumni Research Foundation, priority 2015, dated 2023)",
  "tested_on": "S. cerevisiae deletion mutants",
  "test": "Chemical genomic profiling of pooled deletion mutants",
  "type": "cell-based",
  "procedure": "FIGS. 1A-B depict chemical genomic profiling of ionic liquids. A genome-wide set of deletion mutants were challenged with a specific compound and grown as a pool for several generations.\nChemical genomic analysis: Chemical genomic analysis of poacic acid was performed as described as described previously (Fung et al., 2013; Parsons et al., 2006). The tested yeast deletion collection had 4000 strains using the genetic background described in Andrusiak (2012). The optimal inhibitory concentration of poacic acid for chemical genomic profiling (70-80% growth versus solvent control in YP-galactose media after 24 hours of growth) was determined using an 8 point dose curve. A concentration of 88 μg/ml inhibited growth within this range. 200 μl cultures of the pooled, deletion collection of S. cerevisiae deletion mutants were grown with 88 μg/ml poacic acid or a DMSO control in triplicate for 48 hours at 30° C. Genomic DNA was extracted using the Epicentre MasterPure™ Yeast DNA purification kit. Mutant-specific molecular barcodes were amplified with specially designed multiplex primers (Smith et al., 2009). The barcodes were sequenced using an Illumina MiSeq. Three replicates of each condition (poacic acid vs. DMSO) were sequenced. One DMSO control was lost due to poor sequencing reads. The barcode counts for each yeast deletion mutant in the presence of poacic acid were normalized against the DMSO control conditions to define sensitivity or resistance of individual strains. To determine a p-value for each top sensitive and resistant mutant, we used the EdgeR package (Robinson et al., 2014, 2010). A Bonferroni-corrected hypergeometric distribution test was used to search for significant enrichment of GO terms among the top 10 sensitive and resistant deletion mutants (Boyle et al., 2004). To understand the pathways that were most affected by poacic acid we developed a protein complex/pathway score based on the summation of the z-scores for each complex/pathway (Pathway z-score). Correlation of the chemical genomic profile of poacic acid with the yeast genetic interaction network to was done as described in Costanzo et al. (2010).",
  "note": "Where “and” joins values, the source holds several entries; their conditions need not be identical. Equal entries are not always repeated.",
  "data": [
    {"smiles": "CCn1cc[n+](C)c1.[Cl-]", "note": "[EMIM-Cl, 1-ethyl-3-methylimidazolium chloride]", "values": [
      {"measurement": "Fold Change", "setting": "APM3 deletion mutant", "value": 0.5222},
      {"measurement": "Fold Change", "setting": "ARG2 deletion mutant, listed as EMIM-CI", "value": 0.1706},
      {"measurement": "Fold Change", "setting": "ARX1 deletion mutant", "value": 1.688},
      {"measurement": "Fold Change", "setting": "AVT3 deletion mutant", "value": 1.575},
      {"measurement": "Fold Change", "setting": "AVT5 deletion mutant", "value": 1.933},
      {"measurement": "Fold Change", "setting": "BAP2 deletion mutant", "value": 1.689},
      {"measurement": "Fold Change", "setting": "BNI4 deletion mutant", "value": 1.665},
      {"measurement": "Fold Change", "setting": "BUD8 deletion mutant", "value": 0.6034},
      {"measurement": "Fold Change", "setting": "CAT5 deletion mutant", "value": 0.4405},
      {"measurement": "Fold Change", "setting": "CTF4 deletion mutant", "value": 2.67},
      {"measurement": "Fold Change", "setting": "DAN1 deletion mutant", "value": 0.5786},
      {"measurement": "Fold Change", "setting": "DBF2 deletion mutant", "value": 1.927},
      {"measurement": "Fold Change", "setting": "DBP3 deletion mutant", "value": 1.709},
      {"measurement": "Fold Change", "setting": "DEP1 deletion mutant", "value": 2.106},
      {"measurement": "Fold Change", "setting": "DIA2 deletion mutant", "value": 2.886},
      {"measurement": "Fold Change", "setting": "DOA1 deletion mutant", "value": 1.661},
      {"measurement": "Fold Change", "setting": "DPB3 deletion mutant", "value": 1.946},
      {"measurement": "Fold Change", "setting": "ERF2 deletion mutant", "value": 1.477},
      {"measurement": "Fold Change", "setting": "GAL1 deletion mutant", "value": 0.1962},
      {"measurement": "Fold Change", "setting": "GAL1 deletion mutant, listed as EMIM-CI", "value": 0.1962},
      {"measurement": "Fold Change", "setting": "GRX2 deletion mutant", "value": 0.3394},
      {"measurement": "Fold Change", "setting": "HIR2 deletion mutant", "value": 0.4587},
      {"measurement": "Fold Change", "setting": "HMI1 deletion mutant", "value": 0.1939},
      {"measurement": "Fold Change", "setting": "IRA2 deletion mutant", "value": 0.4076},
      {"measurement": "Fold Change", "setting": "IST3 deletion mutant", "value": 1.899},
      {"measurement": "Fold Change", "setting": "LIA1 deletion mutant", "value": 1.621},
      {"measurement": "Fold Change", "setting": "LYS2 deletion mutant", "value": 0.4622},
      {"measurement": "Fold Change", "setting": "LYS5 deletion mutant", "value": 0.1821},
      {"measurement": "Fold Change", "setting": "LYS14 deletion mutant", "value": 0.3984},
      {"measurement": "Fold Change", "setting": "MCT1 deletion mutant", "value": 0.1576},
      {"measurement": "Fold Change", "setting": "MEI4 deletion mutant", "value": 1.592},
      {"measurement": "Fold Change", "setting": "MF(ALPHA)2 deletion mutant", "value": 0.6154},
      {"measurement": "Fold Change", "setting": "NMD2 deletion mutant", "value": 1.614},
      {"measurement": "Fold Change", "setting": "OLA1 deletion mutant", "value": 1.645},
      {"measurement": "Fold Change", "setting": "PEX32 deletion mutant", "value": 2.103},
      {"measurement": "Fold Change", "setting": "PMT1 deletion mutant", "value": 1.712},
      {"measurement": "Fold Change", "setting": "PPM1 deletion mutant", "value": 0.3444},
      {"measurement": "Fold Change", "setting": "PTK2 deletion mutant", "value": 12},
      {"measurement": "Fold Change", "setting": "PUF4 deletion mutant", "value": 0.1863},
      {"measurement": "Fold Change", "setting": "PUF4 deletion mutant, listed as EMIM-CI", "value": 0.1863},
      {"measurement": "Fold Change", "setting": "PUF6 deletion mutant", "value": 1.748},
      {"measurement": "Fold Change", "setting": "QCR2 deletion mutant, listed as EMIM-CI", "value": 0.195},
      {"measurement": "Fold Change", "setting": "RCR1 deletion mutant", "value": 0.4508},
      {"measurement": "Fold Change", "setting": "REI1 deletion mutant", "value": 2.168},
      {"measurement": "Fold Change", "setting": "RHO2 deletion mutant", "value": 1.785},
      {"measurement": "Fold Change", "setting": "RIM1 deletion mutant, listed as EMIM-CI", "value": 0.1974},
      {"measurement": "Fold Change", "setting": "RNP1 deletion mutant", "value": 1.495},
      {"measurement": "Fold Change", "setting": "ROM2 deletion mutant", "value": 2.198},
      {"measurement": "Fold Change", "setting": "RPL11B deletion mutant", "value": 1.725},
      {"measurement": "Fold Change", "setting": "RPL19A deletion mutant", "value": 1.875},
      {"measurement": "Fold Change", "setting": "RPL19B deletion mutant", "value": 1.56},
      {"measurement": "Fold Change", "setting": "RPL24B deletion mutant", "value": 2.086},
      {"measurement": "Fold Change", "setting": "RPS10A deletion mutant", "value": 2.351},
      {"measurement": "Fold Change", "setting": "RPS18B deletion mutant", "value": 1.743},
      {"measurement": "Fold Change", "setting": "RPS28B deletion mutant", "value": 2.088},
      {"measurement": "Fold Change", "setting": "RRI1 deletion mutant", "value": 0.6151},
      {"measurement": "Fold Change", "setting": "SAP155 deletion mutant", "value": 1.704},
      {"measurement": "Fold Change", "setting": "SAP185 deletion mutant", "value": 0.649},
      {"measurement": "Fold Change", "setting": "SAY1 deletion mutant", "value": 1.592},
      {"measurement": "Fold Change", "setting": "SHE9 deletion mutant", "value": 0.2014},
      {"measurement": "Fold Change", "setting": "SIN3 deletion mutant", "value": 2.02},
      {"measurement": "Fold Change", "setting": "SKY1 deletion mutant", "value": "4.5 and 4.547"},
      {"measurement": "Fold Change", "setting": "SPS4 deletion mutant", "value": 0.5658},
      {"measurement": "Fold Change", "setting": "SSK2 deletion mutant", "value": 1.579},
      {"measurement": "Fold Change", "setting": "SUR4 deletion mutant", "value": 2.535},
      {"measurement": "Fold Change", "setting": "SVL3 deletion mutant", "value": 0.3847},
      {"measurement": "Fold Change", "setting": "SWI6 deletion mutant", "value": 1.902},
      {"measurement": "Fold Change", "setting": "TOP1 deletion mutant", "value": 1.759},
      {"measurement": "Fold Change", "setting": "TRP2 deletion mutant", "value": 1.685},
      {"measurement": "Fold Change", "setting": "TSR2 deletion mutant", "value": 1.94},
      {"measurement": "Fold Change", "setting": "TYE7 deletion mutant", "value": 0.4859},
      {"measurement": "Fold Change", "setting": "UBC4 deletion mutant", "value": 1.541},
      {"measurement": "Fold Change", "setting": "UBP14 deletion mutant", "value": 1.534},
      {"measurement": "Fold Change", "setting": "UPF3 deletion mutant", "value": 1.61},
      {"measurement": "Fold Change", "setting": "VPS38 deletion mutant", "value": 1.666},
      {"measurement": "Fold Change", "setting": "YBR090C deletion mutant", "value": 0.5882},
      {"measurement": "Fold Change", "setting": "YDL118W deletion mutant", "value": 1.522},
      {"measurement": "Fold Change", "setting": "YDL172C deletion mutant", "value": 1.636},
      {"measurement": "Fold Change", "setting": "YGR237C deletion mutant", "value": 0.5496},
      {"measurement": "Fold Change", "setting": "YHB1 deletion mutant", "value": 0.5611},
      {"measurement": "Fold Change", "setting": "YIH1 deletion mutant", "value": 1.762},
      {"measurement": "Fold Change", "setting": "YIL141W deletion mutant", "value": 1.524},
      {"measurement": "Fold Change", "setting": "YIR044C deletion mutant", "value": 0.5723},
      {"measurement": "Fold Change", "setting": "YLR194C deletion mutant", "value": 0.5909},
      {"measurement": "Fold Change", "setting": "YLR279W deletion mutant", "value": 0.5779},
      {"measurement": "Fold Change", "setting": "YLR434C deletion mutant", "value": 1.5},
      {"measurement": "Fold Change", "setting": "YMR193C-A deletion mutant", "value": 1.867},
      {"measurement": "Fold Change", "setting": "YOL162W deletion mutant", "value": 0.5537},
      {"measurement": "Fold Change", "setting": "YPL205C deletion mutant", "value": 1.523},
      {"measurement": "Fold Change", "setting": "YPR130C deletion mutant", "value": 0.5263},
      {"measurement": "Fold Change", "setting": "YPS7 deletion mutant", "value": 1.508},
      {"measurement": "Fold Change", "setting": "YPT7 deletion mutant", "value": 0.1584},
      {"measurement": "Fold Change", "setting": "YPT7 deletion mutant, listed as EMIM-CI", "value": 0.1584},
      {"measurement": "Fold Change", "setting": "YSP2 deletion mutant", "value": 1.618},
      {"measurement": "Fold Change", "setting": "ZDS1 deletion mutant", "value": 0.6026}
    ]}
  ]
}
